Laboratory results: patent US11358863B2, “Method and composition of humidity-controlled generation of chlorine dioxide in polymers and superabsorbent hydrogels” (priority 2017, dated 2022)

What was measured:
Type in all cases: cell-based
[1] = system: spores of Bacillus cereus; assay: Microbiological validation of aqueous ClO2 using Bacillus cereus spores, serial dilutions and plate-counting on Nutrient Agar; details: dilutions 1-10^-6, NA plates 18 hours at 37° C.
[2] = system: Bacillus atrophaeus spores; assay: Clamshell package with chlorite/HMS absorbent pad in humid desiccator: ethylene oxide gas sterility test strip; details: gaseous ClO2 about 25-50 ppm after 24 hours, 89% RH, 35° C.
Excerpt: (§1) We tested a clamshell package made of plastic (commonly PLA or polyethylene terephthalate (PET)), typical of the packaging used to contain fresh produce or berries as sold in supermarkets, convenience stores, and other grocery stores. These clamshell packages have vent holes that allow the free-flow exchange of gases between the interior of the package and its surrounding environment.
(§2) A beaker with two ClO2 indicator test strips (high range, 0-500 ppm), one Geobacillus stearothermophilus 7953 autoclave sterility test strip and one Bacillus atrophaeus ethylene oxide gas sterility test strip, was placed inside the clamshell package. A piece of blue material comprising non-woven textiles and superabsorbent hydrogel, characteristic of a common disposable diaper, was cut into a 3×1 inch rectangle. Dry sodium chlorite and dry HMS were placed on spatially separate regions of the material. The blue absorbent pad was sprayed with a small amount of water, and then folded in half. The entire clamshell package (containing the indicator strips, microbial test strips, and blue pad with reactive reagents) was placed inside a desiccator charged with […] The entire desiccator assembly, containing the salt solution in the bottom and the clamshell package above the solution on a perforated platform, was placed inside an incubator at 35° C., which re-equilibrated and increased RH to 89%. […]

[3] = system: mold on cotton-based parachute sleeve; assay: Mold growth on moldy cotton parachute sleeve sample on Potato Dextrose Agar after ClO2 treatment; details: 10 mL of 100 ppm ClO2 solution, mixed intermittently over 20 minutes, quenched; stored at 30° C. for 5 days
Experimental: Dry reagents of HMS and chlorite ion were added to distilled de-ionized water to produce chlorine dioxide. A cotton-based parachute sleeve that is characteristically used to hold and release parachutes during jumps and to store folded parachutes after jumps was chosen for use. […] Approximately 1×1 in^2 was cut from a parachute sleeve and placed using sterile forceps into a Petri dish of sterile Potato Dextrose Agar (PDA) with a few drops of sterile water. […] A 1×1 in^2 sample was removed from the moldy dish using a sterile technique and placed in a new sterile Petri dish of PDA with sterile water. A second 1×1 in^2 sample was placed in a plastic pouch with 10 mL of 100 ppm ClO2 solution and mixed in a paddle-blender for 2 minutes intermittently over a 20 minute period. At 20 min, reductant was added to quench any excess ClO2, and the sample was placed on a fresh Petri dish of PDA. Both samples were stored at 30° C. for 5 days.

[4] = system: Geobacillus stearothermophilus 7953 spores; assay: Clamshell package with chlorite/HMS absorbent pad in humid desiccator: autoclave sterility test strip; details: gaseous ClO2 about 25-50 ppm after 24 hours, 89% RH, 35° C.
Excerpt: as §1
as §2, with “a” for “a desiccator charged with”

Structure (SMILES): [O][Cl+][O-] [ClO2, chlorine dioxide]
- growth of B. cereus from inoculated protective garment fabric ([1]; 10 microliter inoculum on 1×1 in^2 fabric, 100 ppm ClO2 solution, paddle-blender 15 min, quenched): no discernible growth
- colonies on NA plates (plate-counts) ([1]; B. cereus spore inoculum in 10 mL of 100 ppm aqueous ClO2 solution, paddle-stomacher 15 min, quenched with reductant): no discernible colonies
- microbial growth of B. atrophaeus indicator test strip [2]: negative for microbial growth
- mold growth on cotton sleeve sample and PDA [3]: no signs of mold growth
- microbial growth of G. stearothermophilus indicator test strip [4]: negative for microbial growth
